Laboratory results reported in US20230150929A1, “SELECTIVE NON-CYCLIC NUCLEOTIDE ACTIVATORS FOR THE CAMP SENSOR EPAC1” (The Board of Regents of The University of Texas System, priority 2020, published 2023).

Tests used:
[1] = target: T1, EPAC1-CNBD (Homo sapiens, UniProt O95398); assay: 8-NBD-cAMP competition binding assay, EPAC1-CNBD; conditions: for EPAC1 binding potency / affinity in words: SAR comment on RFI, mostly relative to 3 or 9a; for RFI (%) (relative fluorescence intensity), Table 4: compound 10 µM, EPAC1-CNBD 0.8 µM, 8-NBD-cAMP 62.5 nM, mean ± SEM, lower RFI = stronger binding; for IC50: read-out: IC50 for the EPAC1-CNBD, dose-response, FIG. 3; for IC50 values as EPAC1 binders (in words): summary statement
T1 sequence (O95398 169-318 isoform O95398-3): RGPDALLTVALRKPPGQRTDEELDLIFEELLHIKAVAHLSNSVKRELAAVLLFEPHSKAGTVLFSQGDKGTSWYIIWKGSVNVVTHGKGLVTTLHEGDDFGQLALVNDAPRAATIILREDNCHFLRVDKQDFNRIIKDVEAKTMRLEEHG

[2] = target: T2, EPAC1 (Homo sapiens, UniProt O95398); assay: Active Rap1 pull-down in U2OS cells stably transfected with EPAC1; assay type: cell-based; design: expressed in transfected cells; host or cells: U2OS cells (from Professor Holger Rehmann, University of Utrecht); conditions: for Rap1 activation in EPAC1 cells: U2OS-EPAC1, 100 µM compound, 10 min, FIG. 7; for activation of EPAC1 by compound 2 (Rap1-GTP levels): U2OS-EPAC1 cells, in the presence of EPAC1 agonist 2 (007), FIG. 4
T2 sequence (O95398 1-923): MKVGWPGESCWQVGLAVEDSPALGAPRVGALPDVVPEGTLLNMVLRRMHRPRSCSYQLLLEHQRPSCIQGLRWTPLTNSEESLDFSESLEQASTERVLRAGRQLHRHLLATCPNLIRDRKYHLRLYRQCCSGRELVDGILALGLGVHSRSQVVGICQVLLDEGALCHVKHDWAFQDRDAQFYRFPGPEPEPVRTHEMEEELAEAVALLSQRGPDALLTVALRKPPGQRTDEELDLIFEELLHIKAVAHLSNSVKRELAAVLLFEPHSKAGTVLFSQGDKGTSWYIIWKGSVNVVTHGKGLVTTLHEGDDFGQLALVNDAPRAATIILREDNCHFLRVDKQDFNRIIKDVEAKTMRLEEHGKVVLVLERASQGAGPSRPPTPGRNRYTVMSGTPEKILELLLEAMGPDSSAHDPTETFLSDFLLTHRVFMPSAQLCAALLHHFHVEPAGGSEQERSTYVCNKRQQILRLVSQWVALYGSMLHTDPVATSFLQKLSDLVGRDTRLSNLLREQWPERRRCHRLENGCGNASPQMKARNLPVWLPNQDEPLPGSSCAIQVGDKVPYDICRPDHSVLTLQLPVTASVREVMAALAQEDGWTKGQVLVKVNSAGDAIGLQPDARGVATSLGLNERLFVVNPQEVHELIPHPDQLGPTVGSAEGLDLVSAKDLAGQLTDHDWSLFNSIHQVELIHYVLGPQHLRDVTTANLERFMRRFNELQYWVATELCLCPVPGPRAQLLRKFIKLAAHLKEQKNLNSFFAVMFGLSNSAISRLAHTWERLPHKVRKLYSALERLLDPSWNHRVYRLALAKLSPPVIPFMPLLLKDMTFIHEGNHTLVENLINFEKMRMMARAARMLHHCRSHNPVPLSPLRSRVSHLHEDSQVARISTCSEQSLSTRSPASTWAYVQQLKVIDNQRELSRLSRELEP
Description: Series Expansion and EPAC1 vs EPAC2 Selectivity. GEF assay was used to further screen all newly synthesis analogues at 10 µM, to identify additional activating compounds to expand the series of EPAC1 agonists (FIG. 6). […] Having now identified an expanded exemplary series of compounds as potential EPAC1 activators the ability of 25e, 25f, 25g, 25n and 25u to activate EPAC1 and EPAC2 in cellular Rap1 activation assays (FIG. 7) were compared. For these U2OS cells transfected with either EPAC1 or EPAC2 (FIG. 7) was used. […] Densitometry was carried out on all immunoblots and the ratio of EPAC1 to EPAC2 activation was calculated and presented in a bar graph in FIG. 8.
Active Rap1 Pull-down. U2OS cells (from Professor Holger Rehmann, University of Utrecht) stably transfected with EPAC1 or EPAC2 were cultured in 6-well plates in DMEM, high glucose, supplemented with 10% (v/v) FBS, 1% (v/v) GlutaMAX, 1% (v/v) Penicillin-Streptomycin and 2 mg/l puromycin (to ensure selection of stable transfectants). 80% confluent cells were starved in culture medium with reduced FBS concentration (0.5 %) for 16 h and then stimulated for 10 min with either vehicle, 100 µM of studied compounds, or 50 µM of 2 in case of U2OS-EPAC1 or 100 µM of compound 4 for U2OS-EPAC2. Cells were then rinsed with ice-cold PBS and lysed in 0.5 ml cell lysis buffer (Cell Signaling Technologies) supplemented with 10 mM MgCl2 and 1 mM PMSF, followed by clearing the lysates by centrifugation. Cell lysates were incubated for 1 h (4° C., gentle agitation) with 40 µg GST-RalGDS-RBD immobilized on Glutathione Sepharose 4B (GE Healthcare) to selectively capture GTP-bound Rap1. Later on, the glutathione resin was separated from supernatant by centrifugation, washed three times with cell lysis buffer, then resuspended in 2x SDS sample loading buffer and denatured for 5 min at 95° C.
SDS-PAGE and Western Blotting. Samples were prepared by mixing equal volumes of cell lysate and 2x SDS sample loading buffer and denaturing for 5 min at 95° C., unless indicated otherwise. Protein samples were separated by SDS-PAGE on 10% (v/v) polyacrylamide gels, for EPAC1 and VASP, or on 12.5% (v/v), for Rap1, and then transferred to nitrocellulose membranes. Membranes were then blocked for 1 h at room temperature in 5% (w/v) non-fat dry milk or 5% (w/v) BSA in Tris-buffered saline containing 0.1% (v/v) Tween 20, followed by an overnight incubation with primary antibody diluted in blocking buffer at 4° C. Subsequently, the membranes were incubated with appropriate horseradish peroxidase-conjugated secondary antibodies for 1 h at room temperature. For signal detection the SuperSignal West Pico PLUS Chemiluminescent Substrate (Thermo Scientific) was used. Images were acquired using the Fusion FX7 camera platform (Vilber). Densitometry was performed with ImageJ.

[3] = system: over 40 GPCR targets; assay: Counter screening over a panel of GPCR targets; assay type: binding; conditions: panel of over 40 GPCR proteins
[4] = target: T2, EPAC1; assay: Protein stability of EPAC1 in cells following long-term exposure; assay type: cell-based; design: expressed in transfected cells; host or cells: U2OS cells (from Professor Holger Rehmann, University of Utrecht); conditions: compared with I942

| SMILES | EPAC1 binding potency / affinity in words [1] | RFI (%) (relative fluorescence intensity), Table 4 [1] | IC50 [1] [µM] | IC50 values as EPAC1 binders (in words) [1] | Rap1 activation in EPAC1 cells [2] | activation of EPAC1 by compound 2 (Rap1-GTP levels) [2] | off-target effects towards GPCR proteins [3] | tolerability in terms of protein stability of EPAC1 in cells [4] |
| --- | --- | --- | --- | --- | --- | --- | --- | --- |
| COc1ccc(S(=O)(=O)NC(=O)COc2ccc3ccccc3c2)c(OC)c1 [Compound 25g, N-((2,4-Dimethoxyphenyl)sulfonyl)-2-(naphthalen-2-yloxy)acetamide] | much more potent | 23 ± 4 | 4.8 | low micromolar to sub-micromolar | activate EPAC1 in cells | enhanced |  |  |
| COc1ccc2ccc(OCC(=O)NS(=O)(=O)c3ccc(N)cc3OC)cc2c1 [Compound 25n, N-((4-Amino-2-methoxyphenyl)sulfonyl)-2-((7-methoxynaphthalen-2-yl)oxy)acetamide] |  | 7 ± 1 | 0.9 | low micromolar to sub-micromolar | activate EPAC1 in cells | enhanced | none of them displays the potential off-target effects | better tolerated |
| COc1ccc2ccc(OCC(=O)NS(=O)(=O)c3ccc4ccccc4c3)cc2c1 [Compound 25q, 2-((7-Methoxynaphthalen-2-yl)oxy)-N-(naphthalen-2-ylsulfonyl)acetamide] | significantly enhanced binding potency | 14 ± 3 | 2.2 | low micromolar to sub-micromolar | activate EPAC1 in cells |  | none of them displays the potential off-target effects |  |
